20 molecules from patent US9505729B2, “Isoxazole analogs as mediators of transcriptional induction of E-cadherin” (Vanderbilt University, priority 2014, dated 2016) can be followed below.

Broadly, the fold induction is the signal under treatment as a multiple of the control signal. A high value points to a strong induction. As a reminder, the EC50 is the concentration that produces a half-maximal response.

One test has as its system E-cadherin expression in SW620 cells. The test can be described thus: In-cell Western (ICW) cell-based functional assay of E-cadherin expression in SW620 cells. The following applies: Homo sapiens, SW-620; change in expression level of E-cadherin in response to 10 μM compound, SW620 cells, 24 hours. Here is the method:
SW620 and H520 cells (5×10^4/100 μL) were seeded in a 96-well plate prior to treatment. Cells were treated with 10 μM concentration of synthesized compound in quadruplicate for 24 hours in RPMI 1640 supplemented medium and 100 μg/mL penicillin-streptomycin. The cells were then fixed with 100% methanol for 20 minutes at 4° C. The wells were then washed 2 times with PBS, permeabilized in 2% bovine serum albumin (BSA) and 0.2% TritonX-100 in PBS for 30 minutes at room temperature with gentle agitation, and blocked in LI-COR blocking buffer for 30 minutes at room temperature with gentle agitation. The cells were then incubated with the following primary antibodies: anti-E-Cadherin (1:500) and anti-α-Tubulin (1:1000) diluted in blocking buffer (1:1 dilution in PBS) for 2 hours at room temperature with gentle agitation. The cells were washed 4 times in PBS-T for 5 minutes each, and then incubated with the following secondary antibodies conjugated to a fluorescent entity: IRDye 800-conjugated goat anti-rabbit IgG (1:1000) and IRDye-700-conjugated goat anti-mouse IgG (1:2000) in blocking buffer (1:1 dilution in PBS) with gentle agitation for 1 h at room temperature. The cells were washed 4 times in PBS-T for 5 minutes each followed by a single wash with PBS. All liquid was removed from the wells and the plates were visualized and analyzed on the Odyssey IR imaging system (LI-COR Biosciences).
The assay was further optimized in the following manner. The cells were washed 2 times with PBS, fixed in 100% methanol at room temperature for 15 minutes, and again washed 2 times with PBS. The cells were then incubated with the following primary antibodies: anti-E-Cadherin (1:200) and anti-α-Tubulin (1:2000) diluted in ice cold 2% bovine serum albumin (BSA) and 0.2% TritonX-100 in PBS for 1 hour at room temperature with gentle agitation. The cells were washed 2 times in PBS and then incubated with the following secondary antibodies conjugated to a fluorescent entity: Licor 800-conjugated goat anti-rabbit IgG (1:2000) and IRDye-700-conjugated goat anti-mouse IgG (1:2000) in ice cold 2% BSA and 0.2% TritonX-100 in PBS with gentle agitation for 45 minutes at room temperature. The wells were washed 2 times in PBS, dried, and analyzed as previously mentioned.
N-(3-(Arylamino)alkyl)-5-arylisoxazole-3-carboxamide analogs were synthesized as described above. Changes in expression level of E-cadherin in response to 10 μM compound in SW620 cells was determined in the cell-based functional assay as described above, and the data are shown in Table II. The compound number corresponds to the compound numbers used in Table I.
EC50 of inducement of E-cadherin expression in SW620 cells was determined in the cell-based functional assay as described above, and the data are shown in Table III. The compound number corresponds to the compound numbers used in Table I.
`[N-]=[N+]=Nc1nccc(NCCCNC(=O)c2cc(-c3ccccc3)on2)n1` [Compound 17, N-(3-((2-azidopyrimidin-4-yl)amino)propyl)-5-phenylisoxazole-3-carboxamide] returned a fold induction at 10 µM of 1.07.

`O=C(NCCCNCc1ccccc1O)c1cc(-c2ccccc2)[nH]n1` [Compound 21, N-(3-((2-hydroxybenzyl)amino)propyl)-5-phenyl-1H-pyrazole-3-carboxamide] yielded a fold induction at 10 µM of 1.14.

Molecule `O=C(NCCCNCc1cccnc1)c1cc(-c2ccccc2)[nH]n1` [Compound 22, 5-phenyl-N-(3-((pyridin-3-ylmethyl)amino)propyl)-1H-pyrazole-3-carboxamide] displayed a fold induction at 10 µM of 1.16.

Molecule `O=C(NCCCNCc1ccccn1)c1cc(-c2ccccc2)[nH]n1` [Compound 23, 5-phenyl-N-(3-((pyridin-2-ylmethyl)amino)propyl)-1H-pyrazole-3-carboxamide] returned a fold induction at 10 µM of 1.44.

Turning to `Cc1ncc(CNCCCNC(=O)c2cc(-c3ccccc3)[nH]n2)o1` [Compound 24, N-(3-(((2-methyloxazol-5-yl)methyl)amino)propyl)-5-phenyl-1H-pyrazole-3-carboxamide], the fold induction at 10 µM was determined as 1.5.

With `Cc1ncc(CN(CCCNC(=O)c2cc(-c3ccccc3)[nH]n2)Cc2cnc(C)o2)o1` [Compound 25, N-(3-(bis((2-methyloxazol-5-yl)methyl)amino)propyl)-5-phenyl-1H-pyrazole-3-carboxamide], the fold induction at 10 µM turned out to be 1.54.

`O=C(NCCCNCc1c[nH]c2ccccc12)c1cc(-c2ccccc2)[nH]n1` [Compound 26, N-(3-(((1H-indol-3-yl)methyl)amino)propyl)-5-phenyl-1H-pyrazole-3-carboxamide] displayed a fold induction at 10 µM of 1.64.

`O=C(NCCCN(Cc1ccc(O)c(O)c1)Cc1ccc(O)c(O)c1)c1cc(-c2ccccc2)[nH]n1` [Compound 27, N-(3-(bis(3,4-dihydroxybenzyl)amino)propyl)-5-phenyl-1H-pyrazole-3-carboxamide] showed a fold induction at 10 µM of 1.67.

Turning to `COc1cncc(CNCCCNC(=O)c2cc(-c3ccccc3)[nH]n2)c1` [Compound 28, N-(3-(((5-methoxypyridin-3-yl)methyl)amino)propyl)-5-phenyl-1H-pyrazole-3-carboxamide], the fold induction at 10 µM is 1.8.

Take `COc1cncc(CN(CCCNC(=O)c2cc(-c3ccccc3)[nH]n2)Cc2cncc(OC)c2)c1` [Compound 29, N-(3-(bis((5-methoxypyridin-3-yl)methyl)amino)propyl)-5-phenyl-1H-pyrazole-3-carboxamide]: the fold induction at 10 µM turned out to be 2.09.

`O=C(NCCCNCc1c[nH]c2ncccc12)c1cc(-c2ccccc2)[nH]n1` [Compound 30, N-(3-(((1H-pyrrolo[2,3-b]pyridin-3-yl)methyl)amino)propyl)-5-phenyl-1H-pyrazole-3-carboxamide] had a fold induction at 10 µM of 2.33.

With `Cc1cc(CNCCCNC(=O)c2cc(-c3ccccc3)[nH]n2)on1` [Compound 31, N-(3-(((3-methylisoxazol-5-yl)methyl)amino)propyl)-5-phenyl-1H-pyrazole-3-carboxamide], the fold induction at 10 µM was determined as 2.52.

The molecule `Cc1cc(CN(CCCNC(=O)c2cc(-c3ccccc3)[nH]n2)Cc2cc(C)no2)on1` [Compound 32, N-(3-(bis((3-methylisoxazol-5-yl)methyl)amino)propyl)-5-phenyl-1H-pyrazole-3-carboxamide] displayed a fold induction at 10 µM of 3.06.

In turn, `O=C(NCCCNCc1ccc(O)cc1O)c1cc(-c2ccccc2)[nH]n1` [Compound 33, N-(3-((2,4-dihydroxybenzyl)amino)propyl)-5-phenyl-1H-pyrazole-3-carboxamide] gave a fold induction at 10 µM of 3.4.

Molecule `CC(=O)n1cc(CNCCCNC(=O)c2cc(-c3ccccc3)[nH]n2)c2ccccc21` [Compound 34, N-(3-(((1-acetyl-1H-indol-3-yl)methyl)amino)propyl)-5-phenyl-1H-pyrazole-3-carboxamide] came in with a fold induction at 10 µM of 3.58.

Turning to `O=C(NCCCNCc1cnoc1)c1cc(-c2ccccc2)[nH]n1` [Compound 35, N-(3-((isoxazol-4-ylmethyl)amino)propyl)-5-phenyl-1H-pyrazole-3-carboxamide], the fold induction at 10 µM was found to be 3.59.

`O=C(NCCCN(Cc1cnoc1)Cc1cnoc1)c1cc(-c2ccccc2)[nH]n1` [Compound 36, N-(3-(bis(isoxazol-4-ylmethyl)amino)propyl)-5-phenyl-1H-pyrazole-3-carboxamide] displayed a fold induction at 10 µM of 5.77.

`[N-]=[N+]=Nc1nccc(NCCCNC(=O)c2cc(-c3ccccc3)[nH]n2)n1` [Compound 37, N-(3-((2-azidopyrimidin-4-yl)amino)propyl)-5-phenyl-1H-pyrazole-3-carboxamide] showed a fold induction at 10 µM of 6.09.

In the case of `O=C(NCCCNc1nccc(Cl)n1)c1cc(-c2ccccc2)[nH]n1` [Compound 38, N-(3-((4-chloropyrimidin-2-yl)amino)propyl)-5-phenyl-1H-pyrazole-3-carboxamide], the fold induction at 10 µM worked out at 7.36.

As for `[N-]=[N+]=Nc1ccnc(NCCCNC(=O)c2cc(-c3ccccc3)[nH]n2)n1` [Compound 39, N-(3-((4-azidopyrimidin-2-yl)amino)propyl)-5-phenyl-1H-pyrazole-3-carboxamide], the fold induction at 10 µM was determined as 15.9.

The test is the same for the next values; noted with them: Homo sapiens, SW-620; inducement of E-cadherin expression in SW620 cells.
As to `O=C(NCCCN(Cc1cnoc1)Cc1cnoc1)c1cc(-c2ccccc2)[nH]n1` [Compound 36, N-(3-(bis(isoxazol-4-ylmethyl)amino)propyl)-5-phenyl-1H-pyrazole-3-carboxamide], the EC50 was 12 µM.

`[N-]=[N+]=Nc1nccc(NCCCNC(=O)c2cc(-c3ccccc3)[nH]n2)n1` [Compound 37, N-(3-((2-azidopyrimidin-4-yl)amino)propyl)-5-phenyl-1H-pyrazole-3-carboxamide]: a half-maximal response (EC50) required 15 µM.

Take `O=C(NCCCNc1nccc(Cl)n1)c1cc(-c2ccccc2)[nH]n1` [Compound 38, N-(3-((4-chloropyrimidin-2-yl)amino)propyl)-5-phenyl-1H-pyrazole-3-carboxamide]: the EC50 stood at 22.9 µM.

With `[N-]=[N+]=Nc1ccnc(NCCCNC(=O)c2cc(-c3ccccc3)[nH]n2)n1` [Compound 39, N-(3-((4-azidopyrimidin-2-yl)amino)propyl)-5-phenyl-1H-pyrazole-3-carboxamide], a half-maximal response (EC50) required 5.32 µM.
